These results are taken from patent US8546381B2, “Bridged heterocyclic compounds and methods of use” (Medivation Technologies, Inc., priority 2008, dated 2013).

SMILES strings stand for the structures.

The target of this test is T1, human recombinant serotonin (5-Hydroxytryptamine) 5-HT5A receptor (Homo sapiens, UniProt P47898).
T1 construct: expressed in transfected cells; host or cells: CHO-K1 cells
T1 sequence (P47898 whole entry): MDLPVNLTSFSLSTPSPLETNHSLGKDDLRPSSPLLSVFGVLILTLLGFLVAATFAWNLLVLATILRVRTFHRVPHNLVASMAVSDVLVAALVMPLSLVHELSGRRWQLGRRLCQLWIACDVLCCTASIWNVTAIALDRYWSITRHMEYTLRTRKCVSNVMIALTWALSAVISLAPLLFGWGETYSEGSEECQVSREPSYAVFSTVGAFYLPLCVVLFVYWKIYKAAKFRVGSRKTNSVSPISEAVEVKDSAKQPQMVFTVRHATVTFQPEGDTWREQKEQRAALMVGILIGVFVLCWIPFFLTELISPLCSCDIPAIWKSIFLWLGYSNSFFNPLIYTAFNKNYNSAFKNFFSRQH
Kind of test: Serotonin 5-HT5A radioligand binding ([3H]LSD). The conditions noted are these: read-out: Serotonin 5-HT5A, inhibition of ligand binding (1 μM). The method, then:
To evaluate in radioligand binding assays the activity of compounds of the invention, human recombinant serotonin (5-Hydroxytryptamine) 5-HT5A receptor expressed in Chinese hamster ovary (CHO-K1) cells (Rees, S. et al., FEBS Lett. 355:242, 1994) in a modified Tris-HCl buffer (50 mM Tris-HCl, pH 7.4, 10 mM MgCl2, 0.5 mM EDTA) was used. Compounds of the invention were incubated with 1.7 nM [^3H]Lysergic acid diethylamide (LSD) for 60 minutes at 37° C. Non-specific binding was estimated in the presence of 100 μM Serotonin (5-HT). Receptor proteins were filtered and washed, the filters were then counted to determine [^3H]LSD specifically bound. Compounds were screened at 1 μM or lower, using 1% DMSO as vehicle. Compounds of the invention were tested in this biochemical assay and percent inhibition of specific binding was determined. Biochemical assay results are presented as the percent inhibition of specific binding in Table 4.
`Cc1ccc2c(c1)c1c(n2CCc2ccccc2)CC2CCC1N2C` (stereo not shown) [Compound 2]: the inhibition – broadly, the percentage by which the read-out fell short of the control – at 1 µM came out at 86%.

In the case of `Cc1ccc2c(c1)c1c(n2CCc2ccccc2)CC2CCCC1N2C` (stereo not shown) [Compound 56], the inhibition at 1 µM was determined as 40%.

With `CN1C2CCC1c1c(n(CCc3ccc(F)cc3)c3ccc(Cl)cc13)C2` (stereo not shown) [Compound 57], the inhibition at 1 µM was 48%.

For `CN1C2CCC1c1c(n(CCc3ccc(Cl)cc3)c3ccc(Cl)cc13)C2` (stereo not shown) [Compound 58], the inhibition at 1 µM came to 69%.
